Assay results reported in ChEMBL document CHEMBL1201862, “PubChem BioAssay data set” (2004).
Activity calls are given as the source filed them.

Key:
[1] = P. falciparum Dd2 growth inhibitors, dose response, SYBR Green, cherry-picked samples (AID 1159567); assay type: functional, cell-based
[2] = P. falciparum 3D7-ScDHODH growth inhibitors, dose response, SYBR Green, dry powder samples (AID 1159570); assay type: functional, cell-based;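 note: parasite growth measured after 72 hours of compound exposure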
[3] = P. falciparum Dd2 growth inhibitors, dose response, SYBR Green, dry powder samples (AID 1159566); assay type: functional, cell-based;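 note: potency for growth inhibition with lower SYBR green DNA signal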
[4] = HepG2 cell cytotoxicity, dose response, cytotoxicity control, plate reader, dry powder samples (AID 1159569); assay type: functional, cell-based;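 note: inhibitor potency with signal falling toward the positive control level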
[5] = P. falciparum ATP4 D1247Y mutant growth inhibitors, dose response, NITD609-resistant line, SYBR Green, dry powder (AID 1159571); assay type: functional, cell-based;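 note: parasites synchronized at ring stage by sorbitol before testing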
[6] = reduction of Shn3 3'UTR firefly luciferase signal, dose response, Schnurri-3 inhibitor project, cell-based, Clone20 osteoblasts, cherry-pick, set 2 (AID 720490); assay type: functional;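 note: actives lower the luminescence signal as inhibitors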
[7] = HepG2 cell cytotoxicity, dose response, cytotoxicity control for Shn3 inhibitor project, CellTiter-Glo, cherry-picked (AID 624134); assay type: functional, cell-based
[8] = Shn3 3'UTR reporter inhibitors, dose response, cell-based, Clone20 osteoblasts, firefly luciferase, cherry-picked (AID 624132); assay type: functional;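 note: firefly luciferase luminescence from reporter carrying the Shn3 3'UTR in osteoblasts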
[9] = control 3'UTR Renilla luciferase suppression, dose response, counter-screen for Shn3 inhibitor project, cell-based, Clone20-Shn3RL, cherry-picked (AID 624133); assay type: functional
[10] = RKO cell viability reduction, dose response, CellTiter-Glo luminescence (AID 1117322); assay type: functional
[11] = biological target: Large T antigen (Simian virus 40, UniProt P03070); assay type: functional, Betapolyomavirus macacae;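 note: Confirmatory-stage PubChem screen for compounds that inhibit SV40 T antigen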
[12] = cytotoxicity in HPDE-C7 cells, cell-based, fluorescence, HTS (AID 430); assay type: functional; conditions: Homo sapiens
[13] = cytotoxicity toward Colo320 cells – cell-based, CellTiter-Glo luminescence, IC50, dose response (AID 1117334); assay type: functional; conditions: COLO 320
[14] = SNU-C1 cell viability reduction, dose response, CellTiter-Glo luminescence (AID 1117323); assay type: functional, cell-based
[15] = cytotoxicity toward HCT116 cells – cell-based, CellTiter-Glo luminescence, IC50, dose response (AID 1117332); assay type: functional; conditions: HCT-116
[16] = cytotoxicity in KRAS-transformed pancreatic duct cells, primary screen, cell-based, fluorescence, HTS (AID 431); assay type: functional; conditions: Homo sapiens;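 note: cell line used: HPDE-C7K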
[17] = HCT116 cell viability decrease, GSK3B pretreatment – CellTiter-Glo, IC50, dose response (AID 1117339); assay type: functional; conditions: HCT-116
[18] = Concentration-dependent survival of SW480 colon cancer line, luminescence detection with CellTiter-Glo, half-maximal inhibitory concentration (AID 1117338); assay type: functional
[19] = CellTiter-Glo luminescent dose response of DLD-1 viability loss (AID 1117352); assay type: functional
[20] = tested on: HEK293; experiment: HEK293T cell cytotoxicity, dose response, cytotoxicity control, ATP luminescence, cherry-pick samples (AID 687005); assay type: functional, cell-based; conditions: Homo sapiens;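 note: cells exposed to compound for 48 hours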
[21] = HEK293 Cytotoxicity Assay Measured in Cell-Based System Using Plate Reader - 7071-01_Inhibitor_Dose_CherryPick_Activity_Set2.; assay type: functional
[22] = HepG2 cell cytotoxicity, dose response, cytotoxicity control, cherry-picked samples (AID 1159577); assay type: functional, cell-based

Chain of Large T antigen (P03070 whole entry): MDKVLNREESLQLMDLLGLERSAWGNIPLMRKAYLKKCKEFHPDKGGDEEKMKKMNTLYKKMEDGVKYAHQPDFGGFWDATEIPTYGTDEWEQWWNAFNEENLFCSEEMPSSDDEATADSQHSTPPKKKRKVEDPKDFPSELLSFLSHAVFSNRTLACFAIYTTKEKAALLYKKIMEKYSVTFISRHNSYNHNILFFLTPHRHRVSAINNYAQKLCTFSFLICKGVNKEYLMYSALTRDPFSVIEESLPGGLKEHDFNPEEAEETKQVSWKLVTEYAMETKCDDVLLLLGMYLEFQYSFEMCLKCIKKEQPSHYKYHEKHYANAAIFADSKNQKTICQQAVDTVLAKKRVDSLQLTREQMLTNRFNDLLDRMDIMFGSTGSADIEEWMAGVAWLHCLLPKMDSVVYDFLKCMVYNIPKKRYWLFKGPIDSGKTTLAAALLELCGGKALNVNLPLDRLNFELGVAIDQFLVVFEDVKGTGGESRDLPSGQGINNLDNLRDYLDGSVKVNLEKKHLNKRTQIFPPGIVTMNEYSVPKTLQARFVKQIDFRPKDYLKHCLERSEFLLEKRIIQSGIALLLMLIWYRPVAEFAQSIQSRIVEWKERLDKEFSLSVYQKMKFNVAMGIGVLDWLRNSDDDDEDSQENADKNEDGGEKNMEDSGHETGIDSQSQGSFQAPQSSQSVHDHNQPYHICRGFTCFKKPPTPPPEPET

## COc1cc(CN2C[C@@H]3N[C@H](C2)[C@H]3c2ccc(-c3ccncc3)cc2)cc(OC)c1
[1]
  AC50: 1.63 µM (active)
[2]
  AC50: 1.33 µM (active)
[3]
  AC50: 1.16 µM (active)
[4]
  AC50: 19.6 µM (active)
[5]
  AC50: 0.886 µM (active)

## COc1ccc(CNC(=O)C(C)n2ccc3cc(S(=O)(=O)N4CCCCCC4)ccc32)cc1 (stereo not drawn)
[6]
  AC50: 17.4 µM (active)
[7]
  AC50: > 70 µM (inactive)
[8]
  AC50: 0.518 µM (active)

## CCOC(=O)c1oc2ccc(S(=O)(=O)n3nc(-c4ccc(OC)cc4)cc3N)cc2c1C
[6]
  AC50: 4.68 µM (active)
[7]
  AC50: 60 µM (active)
[9]
  AC50: 30 µM (active)
[8]
  AC50: 1.99 µM (active)

## C=C(CC)C(=O)c1ccc(OCC(=O)O)c(Cl)c1Cl [ETHACRYNIC ACID]
[10]
  IC50: > 6.67 µM (inactive)
[11]
  IC50: > 100 µM (active)
[12]
  EC50: 10.4 µM (active)
[13]
  IC50: > 20 µM (inactive)
[14]
  IC50: > 20 µM (inactive)
[15]
  IC50: > 20 µM (inactive)
[16]
  EC50: 11.3 µM (active)
[17]
  IC50: 12.2 µM (inactive)
[18]
  IC50: > 6.67 µM (inactive)
[19]
  IC50: 11.9 µM (inactive)

## Cc1cccc(-c2ccc([C@@H]3[C@@H](CO)N4CCCCN(S(=O)(=O)c5ccccc5C)C[C@@H]34)cc2)c1
[20]
  AC50: 19.3 µM (active)
[21]
  AC50: 19.3 µM (active)

## N#C[C@@H]1[C@H](c2ccc(C#CC3CCCCC3)cc2)[C@@H](CO)N1C(=O)Cc1ccccn1
[22]
  AC50: > 39 µM (inactive)
[1]
  AC50: 3.79 µM (active)

## COc1cccc(-c2ccc([C@H]3[C@H](C#N)N(C(=O)Cc4ccncc4)[C@H]3CO)cc2)c1
[22]
  AC50: 33.8 µM (active)
[1]
  AC50: 4.28 µM (active)
